What was measured:
HL-60 [1] = assay: HL-60 cell differentiation relative to 1-alpha, 25-dihydroxyvitamin D3; assay type: functional, Homo sapiens
Rattus norvegicus [2] = organism: Rattus norvegicus; assay: Compound was evaluated for rat serum Ca concentration in relative to 1-alpha, 25-dihydroxyvitamin D3; assay type: functional
HL-60 [3] = assay: Effect on HL-60 cell differentiation; assay type: functional, Homo sapiens
Rattus norvegicus [4] = organism: Rattus norvegicus; assay: Compound was evaluated for rat serum Ca concentration; assay type: functional
[5] = target: T1, Vitamin D3 receptor (Bos taurus) (UniProt Q28037); assay: Binding affinity for bovine thymus Vitamin D3 receptor (VDR)
T1 sequence (whole entry): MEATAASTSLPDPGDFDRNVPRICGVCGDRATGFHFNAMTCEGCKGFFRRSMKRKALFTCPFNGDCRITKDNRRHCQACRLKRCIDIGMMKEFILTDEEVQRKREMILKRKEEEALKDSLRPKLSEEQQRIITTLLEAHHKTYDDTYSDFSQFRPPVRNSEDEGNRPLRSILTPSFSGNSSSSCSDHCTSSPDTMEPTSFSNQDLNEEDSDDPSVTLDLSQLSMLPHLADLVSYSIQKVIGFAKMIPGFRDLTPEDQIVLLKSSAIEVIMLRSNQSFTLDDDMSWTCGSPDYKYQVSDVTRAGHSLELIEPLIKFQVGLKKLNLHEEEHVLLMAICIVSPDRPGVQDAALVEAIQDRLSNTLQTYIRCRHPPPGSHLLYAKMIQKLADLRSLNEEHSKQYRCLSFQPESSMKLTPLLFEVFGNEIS

| SMILES | Relative potency (HL-60 [1]) | further results |
| --- | --- | --- |
| C=C1/C(=C\C=C2/CCC[C@]3(C)[C@@H]([C@H](C)CCCC(C)(C)O)CC[C@@H]23)C[C@@H](O)[C@@H](C)[C@H]1O | 1.5 | – |
| C=C1/C(=C\C=C2/CCC[C@]3(C)[C@@H]([C@H](C)CCCC(C)(C)O)CC[C@@H]23)C[C@H](O)[C@H](C)[C@H]1O | 0.5 | – |
| C=C1/C(=C\C=C2/CCC[C@]3(C)[C@@H]([C@H](C)CCCC(C)(C)O)CC[C@@H]23)C[C@@H](O)[C@H](C)[C@H]1O | 1 | – |
| C=C1/C(=C\C=C2/CCC[C@]3(C)[C@@H]([C@H](C)CCCC(C)(C)O)CC[C@@H]23)C[C@@H](O)[C@@H](C)[C@@H]1O | 10 | Relative potency (Rattus norvegicus [2]): 2 |
| C=C1/C(=C\C=C2/CCC[C@]3(C)[C@@H]([C@H](C)CCCC(C)(C)O)CC[C@@H]23)C[C@@H](O)C[C@@H]1O [CALCITRIOL] | – | Relative potency (HL-60 [3]): 100; Relative potency (Rattus norvegicus [4]): 100; Relative potency [5]: 100 |
| C=C1/C(=C\C=C2/CCC[C@]3(C)[C@@H]([C@H](C)CCCC(C)(C)O)CC[C@@H]23)C[C@H](O)[C@@H](C)[C@@H]1O | 1.5 | – |
| C=C1/C(=C\C=C2/CCC[C@]3(C)[C@@H]([C@H](C)CCCC(C)(C)O)CC[C@@H]23)C[C@@H](O)[C@H](C)[C@@H]1O | 200 | Relative potency (Rattus norvegicus [2]): 400 |
| C=C1/C(=C\C=C2/CCC[C@]3(C)[C@@H]([C@H](C)CCCC(C)(C)O)CC[C@@H]23)C[C@H](O)[C@@H](C)[C@H]1O | 3 | – |

Source: ChEMBL document CHEMBL1130618, “A novel and practical route to A-ring enyne synthon for 1 alpha,25-dihydroxyvitamin D3 analogs: synthesis of A-ring diastereomers of 1 alpha,25-dihydroxyvitamin D2 and 3-methyl-1,25-dihydroxyvitamin D3” (1998)
